Experiment in all cases: relative viability (nuclei count vs DMSO), 5 days (fraction); higher = more cells survive
Compound in experiment [1]: C#Cc1cccc(Nc2ncnc3cc(OC)c(OCCCCCCC(=O)NO)cc23)c1 [CUDC-101] + Nc1ncn([C@H]2C[C@H](O)[C@@H](CO)O2)c(=O)n1 [Decitabine] (partner 2 µM)
The procedure, abridged:
(§1)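 For relative viability, nuclei counts in treated wells were divided by those in vehicle wells. Lung cancer cell lines had been pin-tool dosed in 1536-well plates the day after seeding and cultured for 5 days, then fixed and stained in one step (final 0.05% Triton X-100, 1% formaldehyde, 1 ug/ml Hoechst) and imaged at 4×. Doses were one drug alone or a fixed anchor-drug dose plus five library-drug doses (not always all listed) in √10 steps, and values are duplicate-plate medians.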

Compound in experiment [2]: COc1cc2/c(=N/c3ccc(Br)cc3F)nc[nH]c2cc1OCC1CCN(C)CC1 [Vandetanib] + N=C(N)NC(=N)NCCc1ccccc1 [Phenformin] (partner 250 µM)
In outline: as §1

Compound in experiment [3]: C1=CC=C2C(=C1)N=C(S2)C(C#N)C3=NC(=NC=C3)NCCC4=CN=CC=C4 + CS(=O)(=O)N1CCN(Cc2cc3nc(-c4cccc5[nH]ncc45)nc(N4CCOCC4)c3s2)CC1 [Pictilisib] (partner 1 µM)
The procedure, abridged:
as §1

Compound in experiment [4]: C1=CC=C2C(=C1)N=C(S2)C(C#N)C3=NC(=NC=C3)NCCC4=CN=CC=C4 + CC(=O)Nc1cccc(-n2c(=O)n(C3CC3)c(=O)c3c(Nc4ccc(I)cc4F)n(C)c(=O)c(C)c32)c1 [Trametinib] (partner 0.02 µM)
The procedure, abridged:
as §1

Regarding UMC-11, the relative viability in experiment [1] (first compound 0.01 µM) was found to be 0.761; in experiment [1] (first compound 0.03162 µM), 0.477; in experiment [1] (first compound 0.1 µM) it was 0.601; in experiment [1] (first compound 0.3162 µM) it was 0.462; in experiment [1] (first compound 1 µM), 0.221; in experiment [2] (first compound 0.02 µM) it was 0.3. Further, the relative viability in experiment [2] (first compound 0.06325 µM) was found to be 0.308; in experiment [2] (first compound 0.2 µM) it was 0.33; in experiment [2] (first compound 0.6325 µM) it was 0.289; in experiment [2] (first compound 2 µM) it was 0.335; in experiment [3] (first compound 0.005 µM) it was 0.717; in experiment [3] (first compound 0.01581 µM) it was 0.748. For the same cell line, the relative viability stood at 0.689 in experiment [3] (first compound 0.05 µM); 0.877 in experiment [3] (first compound 0.1581 µM); 0.777 in experiment [3] (first compound 0.5 µM); 0.741 in experiment [4] (first compound 0.01581 µM); 0.664 in experiment [4] (first compound 0.05 µM); 0.839 in experiment [4] (first compound 0.1581 µM). Also, in experiment [4] (first compound 0.5 µM), the relative viability worked out at 0.831.

These data come from the supplement of paper PMC10307832.
